In ChEMBL document CHEMBL5104179, “Discovery and Structural Characterization of Small Molecule Binders of the Human CTLH E3 Ligase Subunit GID4” (J Med Chem, 2022):

What follows are compounds tested against T1, Glucose-induced degradation protein 4 homolog (Homo sapiens) (UniProt Q8IVV7). Conditions: HEK293, dose 50.0 µM, time 10.0 min.
T1 sequence (whole entry): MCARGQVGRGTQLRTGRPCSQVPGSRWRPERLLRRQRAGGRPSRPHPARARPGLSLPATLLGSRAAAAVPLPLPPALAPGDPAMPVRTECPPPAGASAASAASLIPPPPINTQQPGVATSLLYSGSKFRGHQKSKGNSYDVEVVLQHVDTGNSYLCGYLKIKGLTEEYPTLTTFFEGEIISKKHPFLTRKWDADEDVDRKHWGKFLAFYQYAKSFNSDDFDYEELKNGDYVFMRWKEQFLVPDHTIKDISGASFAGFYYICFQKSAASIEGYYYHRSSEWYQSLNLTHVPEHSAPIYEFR

Structure (SMILES) | ΔTm [°C]
CNC(=O)[C@H](CCc1ccccc1)NC(=O)[C@H](NC(=O)CNCc1ccc(OC)cc1OC)c1cccs1 | 3.8

Each compound was assayed against T1, Glucose-induced degradation protein 4 homolog (Homo sapiens). Conditions: not given.

Structure (SMILES) | ΔTm [°C]
FC(F)(F)c1ccc(C2NCCc3sccc32)cc1 (configuration not stated) | 2.7
Clc1ccc(C2NCCc3sccc32)cc1 (configuration not stated) | 5.1
COc1ccc(C2NCCc3sccc32)cc1 (racemic) | 4.5
NCc1ccccc1Oc1ccccc1 | > 1
C[C@H](N)c1ccc(Cl)cc1 | > 1
c1cc2c(s1)CCNC2 | 1.9
CC1CN=C(Nc2ccc(F)cc2)S1 (racemic) | 3.2
CNC(=O)C1c2ccccc2CN1C(=O)[C@@H](Cc1c(C)[nH]c2ccccc12)NC(=O)CNCCOc1ccc(C)cc1 (some centres not stated) | 0.1
FC(F)(F)c1ccccc1C1NCCc2sccc21 (configuration not stated) | 5.3
N#Cc1cccc(C2NCCc3sccc32)c1 (configuration not stated) | 3.9
Brc1ccc(C2NCCc3sccc32)cc1 (configuration not stated) | 4.2
CNC(=O)[C@H](CCc1ccccc1)NC(=O)[C@H](NC(=O)CNCc1ccc(OC)cc1OC)c1cccs1 | 16
Oc1cccc(C2NCCc3sccc32)c1 (configuration not stated) | 6.1
CC(=O)c1cccc(NC2=NCC(C)S2)c1 (configuration not stated) | 3.2
CC(=O)c1ccc(NC2=NCC(C)S2)cc1 (configuration not stated) | -0.1
CNC(=O)[C@H](CC1CCCCC1)NC(=O)[C@@H](NC(=O)[C@H]1NC[C@@H]1c1ccccc1)c1ccsc1 | 4.5
c1ccc(NC2=NCCS2)cc1 | 2.5
O=C(O)c1ccc(-c2ccc(Cl)cc2)o1 | > 1
c1ccc(C2NCCc3sccc32)cc1 (configuration not stated) | 7.9
Nc1ccc(C2NCCc3sccc32)cc1 (configuration not stated) | 7.1

Structure (SMILES) | ΔTm [°C]
O=[N+]([O-])c1cccc(C2NCCc3sccc32)c1 (configuration not stated) | 4.9
N#Cc1ccc(C2NCCc3sccc32)cc1 (configuration not stated) | 2
OCc1ccc(C2NCCc3sccc32)cc1 (configuration not stated) | 4.4
CCOc1ccc(NC2=NCC(C)S2)cc1 (configuration not stated) | 0.8
COc1ccc2c(c1)CCCC2c1ccccc1 (configuration not stated) | 6.4
Fc1ccc(C2NCCc3sccc32)cc1 (configuration not stated) | 3.8
Clc1ccccc1C1NCCc2sccc21 (configuration not stated) | 5
COc1ccc(NC2=NCC(C)S2)cc1 (configuration not stated) | 3.1
c1cncc(C2NCCc3sccc32)c1 (configuration not stated) | 2.5
CC1SC(Nc2ccc(F)cc2)=NC1=O (configuration not stated) | 0.6
CC1CN=C(Nc2ccc(N(C)C)cc2)S1 (configuration not stated) | 3.1
CC1CN=C(Nc2ccc(F)cc2F)S1 (configuration not stated) | 0.7
CC(=O)Oc1ccc(C2NCCc3sccc32)cc1 (configuration not stated) | 3.3
COc1cccc2c1CCNC2c1ccccc1 (configuration not stated) | 4.4
CC1CSC(Nc2cccc3ccccc23)=N1 (configuration not stated) | 2.5
O=[N+]([O-])c1ccccc1C1NCCc2sccc21 (configuration not stated) | 4.1
CC1(C)CN=C(Nc2ccc(F)cc2)S1 | 1.2
COc1cccc(C2NCCc3sccc32)c1 (configuration not stated) | 7.6
Clc1ccc(CNCc2cccnc2)cc1 | > 1
Nc1ccccc1C1NCCc2sccc21 (configuration not stated) | 2.8

The compounds below were run against T2, Glucose-induced degradation protein 4 homolog (Homo sapiens, UniProt Q8IVV7) (assay: Inhibition of GID4 (124 to 289) (unknown origin) expressed in Escherichia coli BL21(DE3) using PGLWKS-FITC peptide by competitive-fluorescence polarization binding assay). Conditions: not given.
T2 sequence (Q8IVV7 whole entry): T1 sequence (whole entry)

Structure (SMILES) | IC50 [µM]
CC1CN=C(Nc2cccc(F)c2)S1 (configuration not stated) | 264
